According to article PMC10526209, “Systematic Exploration of Functional Group Relevance for Anti-Leishmanial Activity of Anisomycin” (Biomedicines, 2023):
Where two headings read alike, the source gives them in different places.

Assays:
[1] = tested on: L. tarentolae lysate; assay: Cell-free transcription-translation inhibition in L. tarentolae lysate; type: biochemical; settings: for IC50: inhibition of translation in active cell lysate, EGFP reporter, 120 min at 26 °C
Method: (§1) Cytosolic ribosome susceptibility and selectivity were assessed through three different cell-free transcription-translation assays: (1) An extract of E. coli (S30, Promega, Madison, WI, USA), (2) in rabbit reticulocytes (Promega), and (3) in L. tarentolae lysate (Jena Bioscience, Jena, Germany). Three plasmids, compatible with each extract system, were used in this study: pBESTlucTM (Promega) for the prokaryotic translation assay, Luciferase T7 DNA (Promega) for the reticulocytes, and pLEXSY-invitro2-EGFP (Jena Bioscience) for Leishmania. Firefly luciferase was used as a reporter gene for the bacterial and reticulocyte systems, and EGFP for Leishmania. […] Assays were performed in white polystyrene 96-well flat-bottom plates (Nunc, Roskilde, Denmark) for luciferase and black polystyrene 384-well flat-bottom plates (Greiner, Kremsmunster, Austria) for EGFP. Incubation times were 60 min at 37 °C, 90 min at 30 °C, and 120 min at 26 °C for the bacterial, reticulocyte, and Leishmania systems, respectively. Reactions were stopped by quick snap cooling followed by a 5 min incubation on ice. Luciferase activity was measured for each well following the addition of 50 μL of Luciferase Assay reagent (Promega, Madison, WI, USA) with an automatic reagent injector (Tecan, Mannedorf, Switzerland) by recording the chemical-luminescence signal. EGFP fluorescence (λex = 488 nm; λem = 507 nm) was recorded on a Tecan Infinite R®F200 microplate reader (Tecan). Extracts lacking the circular DNA template were used as a negative control to calculate the fluorescence/chemical luminescence background. Reaction mixtures without compounds were used as positive controls and were regarded as 100% translation. Paromomycin was used as a control reagent in all assays. At least six different concentrations were used to plot each translation inhibition curve; experiments were performed in three independent repeats in duplicate. Half maximal inhibition concentrations (IC50) values were calculated from the concentration-response fitting curves using GraFit7.0.3 software.

[2] = tested on: extract of E. coli (S30); assay: Cell-free transcription-translation inhibition in E. coli S30 extract; type: biochemical; settings: for IC50: inhibition of translation in active cell lysate, luciferase reporter, 60 min at 37 °C
Method: as §1

[3] = tested on: rabbit reticulocytes (RR); assay: Cell-free transcription-translation inhibition in rabbit reticulocytes; type: biochemical; settings: inhibition of translation in rabbit reticulocyte lysate, luciferase reporter, 90 min at 30 °C
Method: as §1

[4] = tested on: Leishmania infantum (MHOM/MA/67/ITMAP-263) wild-type strain; assay: Anti-leishmanial activity on promastigotes, L. infantum WT; type: cell-based; settings: 72 h, 25 °C
Method: (§2) The L. infantum (MHOM/MA/67/ITMAP-263) wild-type strain (WT), as well as the resistant mutants Sb2000.1, AmB1000.1, and MF200.5 [29, 30, 31, 32, 33], which are respectively resistant to antimony (Sb^III), amphotericin B (AmB), and miltefosine (MF), were grown in M199 medium at 25 °C supplemented with 10% fetal bovine serum, 5 μg/mL of haemin at pH 7.0, 2000 μM Sb (Potassium antimonyl tartrate trihydrate, Sigma-Aldrich, Saint Louis, MO, USA), 200 μM of MF (Miltefosine, Cayman Chem, Ann Arbor, MI, USA) or 1 μM AmB (Amphotericin B solution, Sigma-Aldrich, Saint Louis, MO, USA). Leishmanicidal values were determined in Leishmania promastigotes by monitoring the replication of parasites after 72 h of incubation at 25 °C in the presence of increasing concentrations of the different compounds by measuring A600 using a Cytation 5 machine (BioTek-Agilent, Santa Clara, CA 9, USA). EC50 values were calculated based on dose–response curves analyzed by non-linear regression with GraphPad Prism 10.0 software (GraphPad Software, La Jolla, CA, USA). An average of at least three independent biological replicates were performed for each determination.

[5] = tested on: Leishmania infantum (MHOM/MA/67/ITMAP-263) resistant to 200 µM miltefosine; assay: Anti-leishmanial activity on promastigotes, miltefosine-resistant L. infantum; type: cell-based; settings: 72 h
Method: as §2

[6] = tested on: L. infantum WT amastigotes in BMDM; assay: Drug susceptibility of intracellular amastigotes in infected BMDM, L. infantum; type: cell-based; settings: Leishmania infantum; infected BMDM macrophages, 48 h; read-out: EC50 against amastigotes of L. infantum
Method: (§3) The effect of isopropyl ether 22a on the amastigote intracellular form of Leishmania was determined by the measurement of EC50 values in cells, as previously described. Briefly, 2.5 × 10^5 bone-marrow-derived macrophages (BMDMs) were plated into the wells of 12-well chamber slides (Ibidi) with complete DMEM medium. A culture of L. infantum or L. major WT promastigotes in stationary phase in a ratio of 1:5 BMDM to parasites was used to infect cells. Infection was carried out for 3 h at 37 °C in DMEM medium with 5% CO2 without drug. After 24 h, increasing concentrations of ether 22a were added to the medium containing the infected macrophages. After 48 h, the slides were fixed in methanol and stained with Diff-Quick solution to facilitate parasite visualization. The number of infecting amastigotes per 100 cells was determined by examining 300 macrophages per triplicate assay and normalized to the untreated control. EC50 values in the amastigote form were calculated based on dose–response curves that were analyzed by non-linear regression using the GraphPad Prism 9.0 software. An average of three independent biological replicates was used to perform the analyses.

[7] = tested on: Leishmania infantum (MHOM/MA/67/ITMAP-263) resistant to 1 µM amphotericin B; assay: Anti-leishmanial activity on promastigotes, amphotericin B-resistant L. infantum; type: cell-based; settings: 72 h
Method: as §2

[8] = tested on: Leishmania infantum (MHOM/MA/67/ITMAP-263) resistant to 2 mM trivalent (and pentavalent) antimonials; assay: Anti-leishmanial activity on promastigotes, antimony-resistant L. infantum; type: cell-based; settings: 72 h
Method: as §2

[9] = tested on: Leishmania major Friedlin; assay: Anti-leishmanial activity on promastigotes, L. major Friedlin; type: cell-based; settings: 72 h, 25 °C
[10] = tested on: host macrophage (BMDM); assay: Host macrophage toxicity, MTT survival assay; type: cell-based
[11] = tested on: L. major WT amastigotes in BMDM; assay: Drug susceptibility of intracellular amastigotes in infected BMDM, L. major; type: cell-based; settings: Leishmania major; infected BMDM macrophages, 48 h; read-out: EC50 against amastigotes of L. major
Method: as §3

[12] = Leishmania infantum, read-out: IC50 (μM) Ldi WT
[13] = Leishmania infantum, read-out: IC50 (μM) Ldi MF-Res
[14] = Leishmania infantum, read-out: IC50 (μM) Ldi AmB-Res
[15] = Leishmania infantum, read-out: IC50 (μM) Ldi Sb-Res
[16] = Leishmania major, read-out: IC50 (μM) LmF WT

Compound	IC50 [1] [µM]	IC50 [2] [µM]	IC50 [3] [µM]	IC50 [4, 12] [nM]	IC50 [5, 13] [µM]	IC50 [7, 14] [µM]	IC50 [8, 15] [µM]	IC50 [9, 16] [nM]	also measured
CC(=O)O[C@@H]1[C@@H](O)CN[C@@H]1Cc1cc(CN(C)C)c(O)c(CN(C)C)c1 [Analog 19, (2R,3S,4S)-4-hydroxy-2-[3,5-di-(dimethylaminomethyl)-4-hydroxybenzyl]-pyrrolidin-3-yl acetate]	> 1000	> 200	70.7 ± 7.3						activity against L. tarentolae translation / anti-protozoan activity (in words) [1]: abolished anti-protozoan activity
CC(=O)O[C@@H]1[C@@H](O)CN[C@@H]1Cc1cc(CN2CCOCC2)c(O)c(CN2CCOCC2)c1 [Analog 20, (2R,3S,4S)-4-hydroxy-2-[3,5-di-(morpholinomethyl)-4-hydroxybenzyl]-pyrrolidin-3-yl acetate]	> 1000	> 1000	> 1000						activity against L. tarentolae translation / anti-protozoan activity (in words) [1]: abolished anti-protozoan activity
CC(=O)O[C@@H]1[C@@H](O)CN[C@@H]1Cc1ccc(OC(C)C)cc1 [Analog 22a, (2R,3S,4S)-4-hydroxy-2-(4-iso-propoxybenzyl)-pyrrolidin-3-yl acetate]	1.13 ± 0.12	> 200	0.9 ± 0.3						IC50 ([4]; Leishmania infantum, unit nM, read-out: IC50 Ldi WT): 122 ± 5.62 nM; IC50 ([5]; Leishmania infantum, read-out: IC50 Ldi MF-Res): 0.133 ± 0.0078 µM; EC50 [6]: 0.0333 µM; IC50 ([7]; Leishmania infantum, read-out: IC50 Ldi AmB-Res): 0.119 ± 0.0141 µM; effect on E. coli (in words) ([2]; translation assay): no effect; IC50 ([8]; Leishmania infantum, read-out: IC50 Ldi Sb-Res): 0.129 ± 0.00316 µM; IC50 ([9]; Leishmania major, unit nM, read-out: IC50 LmF WT): 180 ± 4.69 nM; fold greater selectivity against the different amastigotes relative to host macrophage toxicity ([10]; MTT survival assay): 5–10 fold; host cell toxicity (in words) ([10]; host BMDM cells): without host cell toxicity; EC50 [11]: 0.0537 µM
CCCCCCCCOc1ccc(C[C@H]2NC[C@H](O)[C@H]2OC(C)=O)cc1 [Analog 22b, (2R,3S,4S)-4-hydroxy-2-(4-octyloxybenzyl)-pyrrolidin-3-yl acetate]	33.5 ± 8.2	> 200	9.5 ± 3.5	1110 ± 30	1.83 ± 0.06	1.78 ± 0.58	1.75 ± 0.08	1750 ± 120	
CC(=O)O[C@@H]1[C@@H](O)CN[C@@H]1Cc1ccc(OCc2ccccc2)cc1 [Analog 22c, (2R,3S,4S)-4-hydroxy-2-(4-benzyloxybenzyl)-pyrrolidin-3-yl acetate]	7.96 ± 1.02	> 200	0.9 ± 0.2						
CC(=O)O[C@@H]1[C@@H](O)CN[C@@H]1Cc1ccc(OCC(=O)O)cc1 [Analog 22d, (2R,3S,4S)-4-hydroxy-2-(4-carboxymethyloxybenzyl)-pyrrolidin-3-yl acetate]				14900 ± 2180	18.2 ± 2.33	19.2 ± 1.24	16 ± 1.03	16600 ± 2230	
CCCCCCCCCCCCCCCCOP(=O)([O-])OCC[N+](C)(C)C [Miltefosine, reference compound]				7160 ± 210	> 200	30.3 ± 4.28	8.21 ± 0.53	8470 ± 1180	
NC[C@@H]1O[C@H](O[C@H]2[C@@H](O)[C@H](O[C@@H]3[C@@H](O)[C@H](N)C[C@H](N)[C@H]3O[C@H]3O[C@H](CO)[C@@H](O)[C@H](O)[C@H]3N)O[C@@H]2CO)[C@H](N)[C@@H](O)[C@@H]1O [Paromomycin, reference compound]	3.62 ± 0.09	0.051 ± 0.005	21 ± 1.1						
Potassium antimonyl tartrate trihydrate [reference compound]									IC50 ([4]; read-out: IC50 (μM) Ldi WT): 75800 ± 6130 nM; IC50 ([5]; promastigotes, 25 °C, read-out: IC50 (μM) Ldi MF-Res): 85.3 ± 7.1 µM; IC50 ([7]; promastigotes, 25 °C, read-out: IC50 (μM) Ldi AmB-Res): 90.2 ± 8.3 µM; IC50 ([8]; promastigotes, 25 °C, read-out: IC50 (μM) Ldi Sb-Res): > 2000 µM; IC50 ([9]; read-out: IC50 (μM) LmF WT): 25000 ± 1130 nM
